This is an account of results in US20030212100A1, “Quinoline derivatives and medicinal use thereof” (priority 2000, published 2003).

Experiment [1] has as its system KK-Ay/Ta Jci type 2 diabetes mice. The experiment is described as follows: In-vivo blood sugar and lipid reduction in diabetes model mice (KKAy mice). Also on record: species or system mouse. The following applies: 30 mg/kg orally one time per day for 4 days, 5th day vs 1st day; for Reduction in free fatty acid (%) / Reduction in triglyceride (%): plasma. As to the method:
Test for in-vivo Evaluation of the Activities for Blood Sugar Reduction and Lipid Reduction Using Diabetes Model Mice (KKAy Mice)
Type 2 diabetes mice “KK-Ay/Ta Jci” (male, Clea Japan, Inc., 10-week old) put in cages were used (each cage contained 5 mice). In the morning of the 1st day of test start, a blood was collected from the orbital vein of each mouse. The blood sugar value in the blood was measured by subjecting the blood to deproteinization using perchloric acid, subjecting the resulting material to centrifugation, and subjecting the resulting supernatant liquid to a new blood sugar test (Boehringer Mannheim). Further, the blood was subjected to centrifugation to obtain a plasma and the triglyceride concentration and free fatty acid concentration in the plasma were measured using Triglyceride E-Test Wako and NEFA-C Test Wako (Wako Pure Chemical Industries, Ltd.), respectively. Grouping was made so that the blood sugar values in individual groups became the same. Then, an Example 2 compound (exemplary compound No. 61) was suspended in a 0.5% aqueous CMC solution and administered orally one time per day for 4 days. In the 5th day of test, blood collection was made to measure blood sugar value, triglyceride concentration and free fatty acid concentration. Incidentally, a group to which only the 0.5% aqueous CMC solution was administered, was used as a control group; and Pioglitazone was used in a positive control group. The reduction in parameter in each group was calculated using the following formula.
Reduction (%)={1−(parameter of 5th day in each group)/(parameter of 1st day in each group)}×100

For a further experiment, the target named is T1, human PPARγ receptor (Homo sapiens, UniProt P37231).
T1 construct: corresponding to Ser204-Tyr506 for human PPARγ1 receptor and human PPARγ2; expressed in transfected cells; host or cells: CV-1 cells (pSG5-based expression vector)
T1 sequence (P37231 204-505 limits assumed): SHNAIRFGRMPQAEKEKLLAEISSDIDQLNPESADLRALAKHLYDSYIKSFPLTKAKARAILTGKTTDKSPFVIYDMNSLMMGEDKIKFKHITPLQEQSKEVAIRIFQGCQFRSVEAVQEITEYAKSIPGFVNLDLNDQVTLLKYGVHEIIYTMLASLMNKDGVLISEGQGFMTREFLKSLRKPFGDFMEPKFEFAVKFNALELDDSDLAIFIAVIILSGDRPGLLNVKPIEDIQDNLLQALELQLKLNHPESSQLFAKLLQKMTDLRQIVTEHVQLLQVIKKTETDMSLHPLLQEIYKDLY
The experiment is described as follows: Luciferase reporter assay of PPARγ agonist activity (Gal4-PPARγ chimera receptor in CV-1 cells). It counts as cell-based. To be noted: luciferase activity with 1 μM Pioglitazone taken as 100, read-out: PPAR γ agonist activity, relative activity; for Emax at 0.1 µM: CV-1, 0.1 μM compound; for Emax at 1 µM: CV-1, 1 μM compound; for Emax at 10 µM: CV-1, 10 μM compound. As to the method:
(§1) Measurement of PPARα Agonist Activity and PPARγ Agonist Activity
(§2) 1. Materials for Assay of Luciferase Using Human PPARα and PPARγ Receptors
(§3) The entire procedure was carried out according to the fundamental methods of genetic engineering and the ordinary method in the yeast one-hybrid or two-hybrid system was applied.
(§4) PGL2-UAS5-TK-luc was prepared as a reporter plasmid carrying a response sequence of Gal4 protein as a basic transcription factor of yeast, an enhancer sequence with five repeat part of UAS, a luciferase gene (luc) under the control of timidine kinase (TK) promoter. Specifically, a DNA fragment encoding a TK promoter (−105/+51) on the downstream side of an enhancer sequence comprising two time repeat of UAS was amplified by PCR using pRL-TK carrying a TK promoter (Promega, Trade name: Catalogue No. E2241) as the template and the primers: […]
(§5) After the fragment was cleaved with XhoI-Hind III, pGL2-UAS2-TK-luc was obtained by inserting the resultant fragment into the XhoI-Hind III site located on the upstream side of a luciferase structural gene on pGL2-Basic vector (Promega, Trade name: Catalogue No. E1641).
(§6) After cleavage of a synthetic DNA as an enhancer sequence comprising three time repeat of Gal4 response sequence (SEQ ID NO: 3): 5′-ATTGGTAC([…])×3 AGATCTCGAC) using KpnI and BgIII was carried out, pGL2-UAS5-TK-luc was prepared by inserting the resulting fragment into the KpnI-BgIIIb site of pGL2-UAS2-TK-luc.
(§7) A vector for expression of a chimera receptor protein, in which a ligand binding region of an internuclear receptor human PPARα or PPARγ receptor was fused with the carboxyl terminal of a DNA binding region of yeast Ga14 protein, was prepared as follows:
(§8) The structural gene of pSG5 (STRATAGENE, Trade Name: Catalogue No. 216201) as the basic expression vector was changed for the chimera receptor except that the promoter-enhancer region was maintained as it was.
(§9) The DNA encoding the ligand binding region of the human PPARα or PPARγ receptor was fused on the downstream side of the DNA encoding the DNA binding region and the amino acid sequence from 1 to 147 positions of Ga14 protein so that their reading frames were fitted and the resulting fused DNA was inserted into pSG5 (trade name) on the down stream side of the promoter-enhancer region. In this step, the DNA sequence was arranged so that a signal for transfer into the nucleus (Ala Pro Lys Lys Lys Arg Lys Val Gly (SEQ ID: No: 4) derived from SV-40T antigen was located on the amino terminal of the ligand binding region of PPARα or PPARγ receptor in order to localize the chimera receptor in the nucleus.
(§10) Based on comparison of the human PPAR receptors described in R. Mukherjee et al., [see J. Steroid Biochem. Molec. Biol., Vol. 51, p157 (1994)] and M. E. Green et al., [see Gene Expression, Vol. 4, p281 (1995))], as the structural gene part used for the ligand binding region PPARα or PPARγ, the human PPARα ligand binding region: Ser167-Tyr468; and the PPARγ ligand binding region: Ser176-Tyr478 were used, which had the same sequences corresponding to Ser204-Tyr506 for human PPARγ1 receptor and human PPARγ2, respectively.
(§11) In order to monitor influence against the basic transcription, an expression vector was prepared which carried a DNA encoding only the DNA binding region and the amino acid sequence from 1 to 147 position of Ga14 protein defective in its PPAR ligand binding region and a signal for transfer into the nucleus of SV-40T-antigen.
(§12) 2. Assay of Luciferase Using Human PPARα or PPARγ Receptor
(§13) CV-1 cells used as a host cell were cultivated according to an ordinary method. Specifically, a fetal bovine serum (Intergent, Catalogue No. 1020-90) was added to a Dulbecco's modified Eagle's medium (DMEM) so that the final concentration became 10%. Further, penicillin G (50 U/ml) and streptomycin sulfate (50 μg/ml) were added. Cultivation was conducted in the resulting medium in a 5% carbon dioxide gas at 37° C. […]
(In a reporter assay the amount or activity of a reporter protein is the signal.)

The test system of experiment [2] is TNFα transcription (human TNF transcription-controlling region). The experiment is described as follows: Inhibition of TNFα production: luciferase under human TNF transcription-controlling region in 3T3-L1 cell strain No. 46. It counts as cell-based. The following applies: 10 μM compound; luciferase activity with DMSO taken as 100 (no hTNF: 40%); 24 hours. The source says: Test for in-vitro Evaluation of the Action of Inhibiting the Production of Tumor Necrosis Factor α (TNFα) Using Lipocytes (Derived from 3T3-L1)
A luciferase gene was bonded to the downstream side of human TNF transcription-controlling region. The resulting material was stably inserted into the chromosomes of 3T3-L1 cells. The thus-obtained cell strain No. 46 was used for evaluation.
The cell strain No. 46 was cultivated according to an ordinary method. Specifically, a bovine serum (Cell Culture Technology, Catalogue No. CC017-502) was added to a Dulbecco's modified Eagle's medium (DMEM) so that the final concentration became 10%. Further, 50 U/ml of penicillin G, 50 ug/ml of streptomycin sulfate and 0.4 mg/ml of G418 were added. In the resulting medium was conducted cultivation in a 5% carbon dioxide gas at 37° C.
The cell strain No. 46 was planted into a PLL (poly L-lysine)-coated 48-well plate. When the cell strain reached confluence and then at least two days passed, the medium was substituted with the above medium containing 9 ng/m of hTNF (Genzyme) and an activity for TNFα transcription was induced. hTNF was added and, simultaneously therewith, a compound of the present invention was added so that the final concentration became 10 μM. 24 hours later, the cells were observed by a microscope. Then, the cells were fused and the luciferase activity was measured according to an ordinary method.
Regarding the activity for TNFα transcription, the luciferase activity when DMSO was added in place of the compound, was taken as 100; and the relative activity when 10 uM of the present compound was added, was shown in Table 1. Incidentally, the relative luciferase activity when no hTNF was added, was 40%.

Another experiment addresses T2, human PPARα receptor (Homo sapiens, UniProt Q07869).
T2 construct: expressed in transfected cells; host or cells: CV-1 cells (pSG5-based expression vector)
T2 sequence (Q07869 167-468): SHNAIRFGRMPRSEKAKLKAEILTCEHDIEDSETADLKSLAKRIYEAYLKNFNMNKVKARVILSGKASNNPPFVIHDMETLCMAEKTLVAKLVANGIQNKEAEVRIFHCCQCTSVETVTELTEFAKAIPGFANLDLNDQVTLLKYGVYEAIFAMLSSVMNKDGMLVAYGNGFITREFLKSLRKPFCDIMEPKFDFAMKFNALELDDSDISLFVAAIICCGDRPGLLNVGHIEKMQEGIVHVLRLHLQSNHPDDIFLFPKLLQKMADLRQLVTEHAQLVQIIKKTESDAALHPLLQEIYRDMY
The experiment in a line: Luciferase reporter assay of PPARα agonist activity (Gal4-PPARα chimera receptor in CV-1 cells). The format is cell-based. To be noted: luciferase activity with 10 μM Wy-14,643 taken as 100, read-out: PPARα agonist activity, relative activity; for Emax at 1 µM: CV-1, 1 μM compound; for Emax at 10 µM: CV-1, 10 μM compound; for Emax at 0.1 µM: CV-1, 0.1 μM compound. How it is done:
as §1, §2, §3, §4, §5, §6, §7, §8, §9, §10, §11, §12, §13

`CCc1ccc(CCOc2ccc(CC3SC(=O)NC3=O)cc2)nc1` (stereo not drawn) [Pioglitazone, reference compound]: in experiment [1], the “Reduction in blood sugar (%)” value was 28%, the “Reduction in free fatty acid (%)” value was found to be 49% and the “Reduction in triglyceride (%)” value was 60%.
Turning to `CNC(=O)C(Cc1ccc(OCc2cnc3ccc(OC)cc3c2OC(C)C)cc1)C(C)=O` (stereo not drawn) [Example 24 (141), 2-{[4-(4-isopropoxy-6-methoxyquinoline-3-yl)methyloxy]phenylmethyl}-3-oxobutanoic acid N-methylamide], on human PPARγ receptor, the Emax at 0.1 µM was determined as 0.8%, the Emax at 1 µM amounted to 1.2% and the Emax at 10 µM amounted to 9.4%. Further, in experiment [2], the “Activity for TNFα transcription, relative activity” value turned out to be 71.6.
Take `CCOC(Cc1ccc(OCc2cnc3ccc(OC)cc3c2OC(C)C)cc1)C(=O)O` (stereo not drawn) [Example 2 (61), 2-ethoxy-3-{[4-(4-isopropoxy-6-methoxyquinoline-3-yl)methyloxy]phenyl}propanoic acid]: at human PPARα receptor, the Emax at 1 µM was found to be 10.4% and the Emax at 10 µM was determined as 24.6%. In addition, on human PPARγ receptor, the Emax at 0.1 µM worked out at 85% and the Emax at 1 µM was determined as 114%. Further, in experiment [1], the “Reduction in blood sugar (%)” value was 50%, the “Reduction in free fatty acid (%)” value came to 46% and the “Reduction in triglyceride (%)” value worked out at 57%.
For the compound `CCOC(Cc1ccc(OCc2cnc3cc(C)cc(C)c3c2OC(C)C)cc1)C(=O)O` (stereo not drawn) [Example 5 (71), 2-ethoxy-3-{[4-(4-isopropoxy-5,7-dimethylquinoline-3-yl)methyloxy]phenyl}propanoic acid], on human PPARα receptor, the Emax at 0.1 µM was 0.3%, the Emax at 1 µM came to 0.5% and the Emax at 10 µM was 28.4%. On human PPARγ receptor, the Emax at 0.1 µM is 0.3%, the Emax at 1 µM was 0.4% and the Emax at 10 µM is 11.6%.
Consider `CCOC(Cc1ccc(OCc2cnc3c(C(F)(F)F)cccc3c2OC(C)C)cc1)C(=O)O` (stereo not drawn) [Example 14 (86), 2-ethoxy-3-{[4-(4-isopropoxy-8-trifluoromethylquinoline-3-yl)methyloxy]phenyl}propanoic acid], for which, at human PPARα receptor, the Emax at 0.1 µM is 0.3%, the Emax at 1 µM turned out to be 0.3% and the Emax at 10 µM worked out at 2.1%. Moreover, on human PPARγ receptor, the Emax at 0.1 µM was determined as 19.6%, the Emax at 1 µM is 76% and the Emax at 10 µM turned out to be 132%.
On to `CCOC(Cc1ccc(OCc2cnc3cc(C(F)(F)F)ccc3c2OC(C)C)cc1)C(=O)O` (stereo not drawn) [Example 12 (85), 2-ethoxy-3-{[4-(4-isopropoxy-7-trifluoromethylquinoline-3-yl)methyloxy]phenyl}propanoic acid], for which, on human PPARα receptor, the Emax at 0.1 µM came out at 0.2%, the Emax at 1 µM was 0.3% and the Emax at 10 µM is 6.4%. Also, at human PPARγ receptor, the Emax at 0.1 µM was 1.2%, the Emax at 1 µM amounted to 60.4% and the Emax at 10 µM worked out at 111%.
On to `COc1ccc2ncc(COc3ccc(C=C(C(C)=O)C(C)=O)cc3)c(OC(C)C)c2c1` [Example 26 (147), 3-{[4-(4-isopropoxy-6-methoxyquinoline-3-yl)methyloxy]phenylmethylene}-2,4-dioxopentane], for which, on human PPARγ receptor, the Emax at 0.1 µM came to 0.1%, the Emax at 1 µM worked out at 3.7% and the Emax at 10 µM came to 12.8%. The “Activity for TNFα transcription, relative activity” value in experiment [2] was determined as 59.0.
